Measured values published in US20130184273A1, “BICYCLIC PYRIMIDINES” (Bayer Intellectual Property GmbH, priority 2010, published 2013).

Columns and labels:
[1] = target: T1, His-tagged human recombinant kinase full-length Akt1 (Homo sapiens, UniProt P31749); assay: Akt1 kinase assay (TR-FRET); type: biochemical; conditions: 10 μM ATP, 60 min at 22° C., read-out: Akt1, median IC50
T1 construct: His-tagged human recombinant kinase full-length Akt1; His; purchased Invitrogen PV 3599; host or cells: insect cells
T1 sequence (P31749 whole entry): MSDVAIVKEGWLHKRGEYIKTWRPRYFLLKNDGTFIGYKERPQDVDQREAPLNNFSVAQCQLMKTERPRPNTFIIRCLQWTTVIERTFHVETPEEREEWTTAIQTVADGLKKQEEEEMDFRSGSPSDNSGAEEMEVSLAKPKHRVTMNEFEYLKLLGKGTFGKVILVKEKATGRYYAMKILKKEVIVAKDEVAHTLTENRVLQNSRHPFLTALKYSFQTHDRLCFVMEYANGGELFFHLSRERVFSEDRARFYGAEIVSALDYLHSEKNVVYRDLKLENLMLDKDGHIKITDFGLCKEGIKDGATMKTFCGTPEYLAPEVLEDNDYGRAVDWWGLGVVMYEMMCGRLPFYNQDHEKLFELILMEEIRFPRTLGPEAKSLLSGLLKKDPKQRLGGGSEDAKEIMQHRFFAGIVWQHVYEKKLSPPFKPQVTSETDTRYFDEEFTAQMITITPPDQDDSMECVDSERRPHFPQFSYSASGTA
Source text: Akt1 inhibitory activity of compounds of the present invention was quantified employing the Akt1 TR-FRET assay as described in the following paragraphs.
His-tagged human recombinant kinase full-length Akt1 expressed in insect cells was purchased form Invitrogen (part number PV 3599). As substrate for the kinase reaction the biotinylated peptide biotin-Ahx-KKLNRTLSFAEPG (C-terminus in amide form) was used which can be purchased e.g. from the company Biosynthan GmbH (Berlin-Buch, Germany).
For the assay 50 nl of a 100 fold concentrated solution of the test compound in DMSO was pipetted into a black low volume 384well microtiter plate (Greiner Bio-One, Frickenhausen, Germany), 2 μl of a solution of Akt1 in assay buffer [50 mM TRIS/HCl pH 7.5, 5 mM MgCl2, 1 mM dithiothreitol, 0.02% (v/v) Triton X-100 (Sigma)] were added and the mixture was incubated for 15 min at 22° C. to allow pre-binding of the test compounds to the enzyme before the start of the kinase reaction. Then the kinase reaction was started by the addition of 3 μl of a solution of adenosine-tri-phosphate (ATP, 16.7 μM=>final conc. in the 5 μl assay volume is 10 μM) and substrate (1.67 μM=>final conc. in the 5 μl assay volume is 1 μM) in assay buffer and the resulting mixture was incubated for a reaction time of 60 min at 22° C. The concentration of Akt1 in the assay was adjusted depending of the activity of the enzyme lot and was chosen appropriate to have the assay in the linear range, typical enzyme concentrations were in the range of about 0.05 ng/μl (final conc. in the 5 μl assay volume).
The reaction was stopped by the addition of 5 μl of a solution of HTRF detection reagents (200 nM streptavidine-XL665 [Cisbio] and 1.5 nM anti-phosho-Serine antibody [Millipore, cat. #35-001] and 0.75 nM LANCE Eu-W 1024 labeled anti-mouse IgG antibody [Perkin Elmer]) in an aqueous EDTA-solution (100 mM EDTA, 0.1% (w/v) bovine serum albumin in 50 mM HEPES/NaOH pH 7.5). The resulting mixture was incubated 1 h at 22° C. to allow the binding of the biotinylated phosphorylated peptide to the streptavidine-XL665 and the antibodies. Subsequently the amount of phosphorylated substrate was evaluated by measurement of the resonance energy transfer from the anti-mouse-IgG-Eu-Chelate to the streptavidine-XL665. Therefore, the fluorescence emissions at 620 nm and 665 nm after excitation at 350 nm was measured in a HTRF reader, e.g. a Rubystar (BMG Labtechnologies, Offenburg, Germany) or a Viewlux (Perkin-Elmer). The ratio of the emissions at 665 nm and at […] was taken as the measure for the amount of phosphorylated substrate. The data were normalised (enzyme reaction without inhibitor=0% inhibition, all other assay components but no enzyme=100% inhibition).

[2] = system: p-AKT S473 in PC3 human prostate tumours; assay: In vivo xenograft mechanism of action study; set-up: species or system athymic nude mice; conditions: PC3 tumours xenografted onto nude mice, treated once with 50 mg/kg p.o., 5 hours post treatment
Source text: To this extent PC3 human prostate tumours were xenografted onto athymic nude mice. PC3 tumour cells were cultivated according to ATCC protocols in recommended media contained 10% FCS and harvested for transplantation in a subconfluent (70%) state. 3×10^6 tumour cells suspended in 50% Matrigel were subcutaneously implantated into the inguinal region of male mice. Tumours were allowed to grow to the predetermined size of 60-80 mm^2. When the tumours were approximately in size, the animals were randomized to treatment and control groups (groups size: 9 animals) and treatment was started. Animals were treated once with 50 mg/kg compound or vehicle per oral administration (p.o.) carried out via a gastric tube. Treatment of each animal was based on individual body weight. At 2, 5 and 24 hours post treatment 3 animals each were sacrificed and the PC3 tumours excised. Tumour samples of approximately 5×5×5 mm were lysed on ice in MSD lysis buffer in the presence of protease and phosphatase inhibitors using Tissue Lyzer (Qiagen, Germany). The levels of p-AKT S473 in extracts from tumour tissue were analysed in an ELISA based assay. This assay is based on the “Akt Duplex” of the MULTI-SPOT® Assay System (Fa. Meso Scale Discovery, Cat #N41100B-1) following manufacturers instructions. Each assay used 20 μg of protein extract and measured total AKT and p-AKT content simultaneously in one well. All measurements where at least done in duplicates and confirmed by independent repetition.
Values for P-AKT are expressed as percentage of P-AKT level compared to total-AKT content of the extracts. Vehicle treated tumours were analyzed to determine the basal level of P-AKT in this model and used as a normalization control to determine the % P-AKT relative to vehicle levels.

[3] = system: phospho-AKT at S473 in KPL4 breast tumour cell line; assay: Cellular p-AKT1/2/3-S473 assay; type: cell-based; conditions: KPL4 cells, treated with compounds for 2 hours; read-out: pAKT-S743 median IC50
Experimental: The molecular mechanism of action was investigated in a set of experiments to assess the inhibition of the PI3K-AKT-mTOR pathway in responsive cell lines such as KPL4 breast tumour cell line (PIK3CAH1047R, HER20/E and hormone independent). The phospho-substrates of PI3K-AKT-mTOR axis were used as the read-outs to reflect pathway inhibition. Cells were seeded at 60-80% confluency per well in 96-well cell culture plates. After overnight incubation at 37° C. 5% CO2, cells were treated with compounds and vehicle at 37° C. for 2 hours. Thereafter, cells were lysed in 150 μl lysis buffer and the levels of phospho-AKT at T308 and S473 and p-4E-BP1 at T70 sites were determined with the corresponding AlphaScreen® SureFire® assay kits (Perkin Elmer: 4E-BP1 Assay Kit Cat # TRG4E2S10K; Akt 1/2/3 p-Ser 473 #TGRA4S500 and Akt 1/2/3 p-Thr 308 #TGRA3S500 as well as IgG detection Kit #6760617M) as described in the manuals. All measurements where at least done in duplicates and confirmed by independent repetition.
Alternatively pAKT-S473 was measured using the “Akt Duplex” of the MULTI-SPOT® Assay System (Fa. Meso Scale Discovery, Cat#N41100B-1) following manufacturers instructions. Each assay used 20 μg of protein extract and measured total AKT and p-AKT content simultaneously in one well. All measurements where at least done in duplicates and confirmed by independent repetition. Values for P-AKT are expressed as percentage of P-AKT level compared to total-AKT content of the extracts.

| IC50 [1] [nM] | IC50 [3] [nM] | Structure (SMILES) | P-AKT % relative to control at 5 hours [2] [%] |
| --- | --- | --- | --- |
| 474 | – | Cc1cn2cc(-c3ccccc3)c(-c3ccc(C4(N)CCC4)cc3)nc2n1 [Example 2-1, 1-[4-(2-Methyl-6-phenyl-imidazo[1,2-a]pyrimidin-7-yl)-phenyl]-cyclobutylamine] | 6.7 |
| 329 | 230 | CS(=O)(=O)c1ccc(-c2cnc3nc(-c4ccc(C5(N)CCC5)cc4)c(-c4ccccc4)cn23)cc1 [Example 4-0, 1-{4-[3-(4-Methansulfonyl-phenyl)-6-phenyl-imidazo[1,2-a]pyrimidin-7-yl]-phenyl}-cyclobutylamine] | – |
| 1410 | 920 | NC1(c2ccc(-c3nc4ncc(-c5ccc(F)cc5)n4cc3-c3ccccc3)cc2)CCC1 [Example 6-0, 1-{4-[3-(4-Fluorophenyl)-6-phenyl-imidazo[1,2-a]pyrimidin-7-yl]-phenyl}-cyclobutylamine] | – |
| 794 | – | Cc1nc2nc(-c3ccc(C4(N)CCC4)cc3)c(-c3ccccc3)cn2n1 [Example 1-0, 1-[4-(2-methyl-6-phenyl-[1,2,4]triazolo[1,5-a]pyrimidin-5-yl)-phenyl]-cyclobutylamine] | 3.2 |
| 376 | 130 | Cn1cc(-c2nc3nc(-c4ccc(C5(N)CCC5)cc4)c(-c4ccccc4)cn3n2)cn1 [Example 5-2, 1-{4-[2-(1-methyl-1H-pyrazol-4-yl)-6-phenyl-[1,2,4]triazolo[1,5-a]pyrimidin-5-yl]-phenyl}-cyclobutylamine] | 17.9 |
| 824 | 1150 | NC(=O)c1cccc(-c2cnc3nc(-c4ccc(C5(N)CCC5)cc4)c(-c4ccccc4)cn23)c1 [Example 6-2, 3-{7-[4-(1-Amino-cyclobutyl)-phenyl]-6-phenyl-imidazo[1,2-a]pyrimidin-3-yl}-benzamide] | – |
| 235 | 240 | NC1(c2ccc(-c3nc4ncc(-c5cn[nH]c5)n4cc3-c3ccccc3)cc2)CCC1 [Example 6-3, 1-{4-[6-Phenyl-3-(1H-pyrazol-4-yl)-imidazo[1,2-a]pyrimidin-7-yl]-phenyl}-cyclobutylamine] | – |
